Reference: patent publication US20230027219A1, “Skin Care Compositions and Methods of Use Thereof” (Unigen, Inc., priority 2013, published 2023)
Where two headings read alike, the source gives them in different places.

How the values were obtained:
3T3-L1 cells = assay: Lipid accumulation assay in adipocytes (Oil red O staining); type: cell-based, Mouse; settings: for inhibition at 0.005 µg/mL / inhibition at 0.01 µg/mL / inhibition at 0.05 µg/mL / inhibition at 0.1 µg/mL / inhibition at 0.5 µg/mL: Mus musculus, read-out: Inhibition (%) of lipid accumulation; for effect on lipid accumulation, in words: over the doses tested, 3T3-L1, Oil red O
Procedure: Mouse embryo fibroblast 3T3-L1 cells (purchased from American Type Culture Collection) were cultured in Dulbecco's modified Eagle's medium (DMEM) (GIBCO) containing 10% bovine calf serum until confluent. Two days post-confluence (D0), the cells were stimulated to differentiate into an adipocyte-like phenotype by adding DMEM containing 10% fetal bovine serum (FBS), 5 μg/ml insulin, 0.5 mM 3-isobutyl-1-methylxanthine (IBMX) and 1 μM dexamethasone for two days (D2). Cells were then maintained in 10% FBS/DMEM medium with 5 μg/ml insulin for another two days (D4), followed by culturing with 10% FBS/DMEM medium for four days (D8). Test samples at various concentrations were added to the cells from Day 0 to Day 8 of adipogenesis, during which the medium was exchanged every 2 days with fresh medium containing the test sample. On Day 8, lipid droplets in cells were stained with Oil red O (ORO) and signal measured at 510 nm.
Briefly, three concentrations of Annona AS-EE3 (100% EtOH) and AS-EE4 (70% EtOH) extracts (0.1, 0.5 and 1 μg/ml) and positive control TNF-α(10 ng/mL) were used to treat 3T3-L1 cells during the differentiation period (from Day 0 to Day 8 of adipogenesis). Cell culture medium containing extracts was changed every 2 days and ORO staining was used to detect lipid droplet accumulation in cells.
Three concentrations of the Annona hexane extracts (0.05, 0.1 and 0.5 μg/ml) were used to treat 3T3-L1 cells during the differentiation period (from Day 0 to Day 8 of adipogenesis), then stained for lipid accumulation on Day 8.
Similar to the previous extracts, each EtOAc extract was tested at three doses of 0.05 μg/ml, 0.1 μg/ml and 0.5 μg/ml.
Similar to the previous extracts, each of the CO2 extracts were tested at the following six doses of 0.0625 μg/ml, 0.125 μg/ml, 0.25 μg/ml, 0.35 μg/ml, 0.5 μg/ml, and 1 μg/ml.

[1] = test system: human subcutaneous preadipocytes; assay: Differentiation assay in human subcutaneous adipocytes (glycerol liberated from triglyceride); type: cell-based
Procedure: The inhibition of lipid accumulation and differentiation assays examined the ability of compounds to inhibit the differentiation of human subcutaneous preadipocytes into adipocytes. Cells were grown to confluency such that all cells were synchronized and then differentiated. Cryopreserved preadipocytes were passaged with preadipocyte medium (PM-1). Cells were fed every other day with PM-1 until confluent. To induce differentiation, PM-1 medium was replaced with differentiation medium (DM-2) including insulin, dexamethasone, isobutyl methylxanthine, PPAR-γ agonist, TNF-α and test compounds at day two. After 7 days, the medium was changed to Adipocyte medium without the test compounds. On day 16 of the assay, cytotoxicity and lipid accumulation were measured. Medium was removed, leaving 50 μl in each well. 10 μl Cell Titer Blue reagent was added to each well. Cells were incubated at 37° C. for 2 hours. […] Fluorescence was measured at excitation 560 nm/emission 590 nm. […] The optical density was read at 540 nm after 15 minutes. […]
The lipid accumulation assay of Example 28 was carried out with Annona squamosa extracts. […] After 2 weeks of treatment, cells were washed with PBS, lysed and triglyceride measured by total TG assay kit (Zen-bio). The reagents contain microbial lipase and the amount of glycerol liberated from triglyceride was measured. […]

3T3-L1 pre-adipocytes = assay: Intracellular triglyceride (TG) content assay; type: cell-based, Mouse; settings: 10 ng/ml; 3T3-L1, 8 days
Procedure: […] The cells were washed with PBS, scraped with homogenizing solutions. The residual cell lysate was centrifuged at 3000 g for 5 min to remove fat layers. The supernatants were assayed. The triglyceride levels were measured by using a commercial kit according to the manufacturer's instructions (#10010303, Cayman Chem., USA). As adipocytes differentiate, their intracellular levels of triglyceride increase continuously.

Row | Compound | inhibition at 0.005 µg/mL (3T3-L1 cells; 3T3-L1, 0 h) [%] | inhibition at 0.01 µg/mL (3T3-L1 cells; 3T3-L1, 0 h) [%] | inhibition at 0.05 µg/mL (3T3-L1 cells; 3T3-L1, 0 h) [%] | inhibition at 0.1 µg/mL (3T3-L1 cells; 3T3-L1, 0 h) [%] | inhibition at 0.5 µg/mL (3T3-L1 cells; 3T3-L1, 0 h) [%] | effect on lipid accumulation, in words (3T3-L1 cells) | inhibition at 0.005 µg/mL (3T3-L1 cells; 0 h, 0.005 μg/ml, 3T3-L1, treated Day 0-8, Oil red O) [%] | inhibition at 0.01 µg/mL (3T3-L1 cells; 0 h, 0.01 μg/ml, 3T3-L1, treated Day 0-8, Oil red O) [%] | inhibition at 0.05 µg/mL (3T3-L1 cells; 0 h, 0.05 μg/ml, 3T3-L1, treated Day 0-8, Oil red O) [%] | inhibition at 0.1 µg/mL (3T3-L1 cells; 0 h, 0.1 μg/ml, 3T3-L1, treated Day 0-8, Oil red O) [%] | inhibition at 0.5 µg/mL (3T3-L1 cells; 0 h, 0.5 μg/ml, 3T3-L1, treated Day 0-8, Oil red O) [%] | Concentration of Glycerol ([1]; 0.01 μg/ml, control 208.28) [µM] | Concentration of Glycerol ([1]; TNF-α 0.01 μg/mL, control 208.28 (Table 32)) | Inhibition (%) of intracellular triglyceride level (3T3-L1 pre-adipocytes) [%]
1 | CCCCCCC(O)CCCC(O)C1CCC(C2CCC(C(O)CCCCCCCCCCCCC3=CC(C)OC3=O)O2)O1 (stereo not drawn) [SA1, Squamocin] | 10.7 ± 10.9 | 37.8 ± 4.4 | 72.3 ± 3.1 | 71.6 ± 1.9 | 66.7 ± 4.7 | high efficacy in a dose dependent manner |  |  |  |  |  |  |  | 
2 | C=C1C[C@@]23CC[C@H]4[C@@](C)(CCC[C@@]4(C)C(=O)O)[C@@H]2CC[C@@H]1C3 [SA2, kaurenoic acid] |  |  |  |  |  | weaker effect | 2 ± 21.9 | 0 | 9.8 ± 13.6 | 12.6 ± 11.7 | 7.8 ± 17.1 |  |  | 
3 | TNF-α [reference compound] |  |  |  |  |  |  |  |  |  |  |  | 4.40 | 4.40 | 55.1
